Data as given in publication PMC7751394, “Succinic acid inhibits the activity of cytochrome P450 (CYP450) enzymes” (Pharmaceutical Biology, 2020).

How the values were obtained:
CYP2D6 [1] = biological target: T1, CYP2D6 (Homo sapiens, UniProt P10635); test: biochemical
Procedure: (§1) All incubations were performed in triplicate, and the mean values were utilized. The typical incubation systems contained 100 mM potassium phosphate buffer (pH 7.4), NADPH generating system (1 mM NADP^+, 10 mM glucose-6-phosphate, 1 U/mL of glucose-6-phosphate dehydrogenase, and 4 mM MgCl2), the appropriate concentration of HLMs, a corresponding probe substrate and hispidulin (or positive inhibitor for different probe reactions) in a final volume of 200 μL.
(§2) The concentration of succinic acid was 100 μM, and the positive inhibitor concentrations were as follows: 10 μM furafylline for CYP1A2, 1 μM ketoconazole for CYP3A4, 10 μM tranylcypromine for CYP2A6, 50 μM clomethiazole for CYP2E1, 10 μM quinidine for CYP2D6, 10 μM sulfaphenazole for CYP2C9, 50 μM tranylcypromine for CYP2C19, 5 μM montelukast for CYP2C8. Probe substrates, positive inhibitors (except for dextromethorphan and quinidine, which were dissolved in water), and succinic acid were dissolved in methanol, with a final concentration of 1% (v/v), and 1% neat methanol was added to the incubations without inhibitor. There was a 3 min preincubation period (at 37 °C) before the reaction was initiated by adding an NADPH-generating system. The reaction was terminated by adding a 100 μL acetonitrile (10% trichloroacetic acid for CYP2A6) internal standard mix, and the solution was placed on ice. The mixture was centrifuged at 12,000 rpm for 10 min, and an aliquot (50 μL) of supernatant was transferred for HPLC analysis. The instrument used in this study was Agilent 1260 series instrument with DAD and FLD detector, and the quantitative assay for the corresponding metabolites was performed as previously reported (Lang et al. [2017]; Zhang et al. [2017]).
(§3) Succinic acid (100 μM) was used to initially screen for its direct inhibitory effects towards different human CYP isoforms. […] Ki values were obtained by incubating various concentrations of different probe substrates (20–100 μM testosterone, 10–50 μM dextromethorphan, 5–20 μM diclofenac) in the presence of 0–50 μM succinic acid.
(§4) The enzyme kinetic parameters for the probe reaction were estimated from the best fit line, using least-squares linear regression of the inverse substrate concentration versus the inverse velocity (Lineweaver-Burk plots), and the mean values were used to calculate Vmax and Km. Inhibition data from the experiments that were conducted using multiple compound concentrations were represented by Dixon plots, and inhibition constant (Ki) values were calculated using non-linear regression according to the following equation: v=(VmaxS)/(Km(1+I/Ki)+S), where I is the concentration of the compound, Ki is the inhibition constant, S is the concentration of the substrate, and Km is the substrate concentration at half the maximum velocity (Vmax) of the reaction. The mechanism of the inhibition was inspected using the Lineweaver-Burk plots and the enzyme inhibition models. The data comparison was performed using Student’s t-test and performed using IBM SPSS statistics 20 (SPSS Inc.).

CYP3A4 [2] = biological target: T2, CYP3A4 (Homo sapiens, UniProt P08684); test: biochemical
Procedure: as §1, §2, §3, §4

CYP2C9 [3] = biological target: T3, CYP2C9 (Homo sapiens, UniProt P11712); test: biochemical
Procedure: as §1, §2, §3, §4

CYP2D6 [4] = biological target: T1, CYP2D6; details: succinic acid 20 μM, 0–30 min
Procedure: (§5) To determine whether succinic acid could inhibit the activity of CYP3A4, 2D6, and 2C9 in a time-dependent manner, succinic acid (20 μM) was pre-incubated with HLMs (1 mg/mL) in the presence of an NADPH-generating system for 30 min at 37 °C. After incubation, an aliquot (20 μL) was transferred to another incubation tube (final volume 200 μL) containing an NADPH-generating system and probe substrates whose final concentrations were approximate to Km. Then, further incubations were performed to measure the residual activity. After being incubated for 0, 5, 10, 15, and 30 min, the reactions were terminated by adding a 100 μL acetonitrile internal standard mix and then placed on ice; the corresponding metabolites were determined by HPLC.

CYP2C9 [5] = biological target: T3, CYP2C9; details: succinic acid 20 μM, 0–30 min
Procedure: as §5

CYP3A4 [6] = biological target: T2, CYP3A4
Procedure: as §5
To determine the KI and Kinact values for the inactivation of CYP3A4, the incubations were conducted using higher probe substrate concentrations (approximately 4-fold Km values) and various concentrations of succinic acid (0–50 μM) after different preincubation times (0–30 min), with a two-step incubation scheme, as described above.

T2 sequence (P08684 whole entry): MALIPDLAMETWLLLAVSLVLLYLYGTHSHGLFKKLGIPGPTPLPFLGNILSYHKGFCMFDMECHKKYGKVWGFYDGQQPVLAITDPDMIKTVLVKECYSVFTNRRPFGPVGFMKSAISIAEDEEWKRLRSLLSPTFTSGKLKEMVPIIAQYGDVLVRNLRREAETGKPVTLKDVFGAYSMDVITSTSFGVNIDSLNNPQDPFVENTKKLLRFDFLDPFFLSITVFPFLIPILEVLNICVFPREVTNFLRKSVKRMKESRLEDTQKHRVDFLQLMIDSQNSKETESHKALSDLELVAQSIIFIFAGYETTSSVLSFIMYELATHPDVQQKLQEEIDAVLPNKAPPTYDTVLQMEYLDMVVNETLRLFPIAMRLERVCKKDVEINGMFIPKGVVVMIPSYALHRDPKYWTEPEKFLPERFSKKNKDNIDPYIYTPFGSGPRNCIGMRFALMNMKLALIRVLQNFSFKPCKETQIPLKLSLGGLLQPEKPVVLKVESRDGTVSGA
T3 sequence (P11712 whole entry): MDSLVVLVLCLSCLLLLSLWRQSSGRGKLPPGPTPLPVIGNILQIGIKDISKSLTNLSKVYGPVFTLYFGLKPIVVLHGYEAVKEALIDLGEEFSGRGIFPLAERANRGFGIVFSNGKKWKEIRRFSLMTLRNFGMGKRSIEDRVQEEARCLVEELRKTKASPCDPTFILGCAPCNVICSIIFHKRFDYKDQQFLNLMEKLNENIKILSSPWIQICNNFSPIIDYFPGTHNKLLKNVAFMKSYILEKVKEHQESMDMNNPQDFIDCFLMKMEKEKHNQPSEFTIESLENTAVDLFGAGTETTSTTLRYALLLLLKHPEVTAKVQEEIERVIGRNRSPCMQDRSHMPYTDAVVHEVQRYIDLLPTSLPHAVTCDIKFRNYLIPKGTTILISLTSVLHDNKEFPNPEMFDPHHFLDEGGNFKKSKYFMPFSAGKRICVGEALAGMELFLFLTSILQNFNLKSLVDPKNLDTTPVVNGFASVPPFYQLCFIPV
T1 sequence (P10635 whole entry): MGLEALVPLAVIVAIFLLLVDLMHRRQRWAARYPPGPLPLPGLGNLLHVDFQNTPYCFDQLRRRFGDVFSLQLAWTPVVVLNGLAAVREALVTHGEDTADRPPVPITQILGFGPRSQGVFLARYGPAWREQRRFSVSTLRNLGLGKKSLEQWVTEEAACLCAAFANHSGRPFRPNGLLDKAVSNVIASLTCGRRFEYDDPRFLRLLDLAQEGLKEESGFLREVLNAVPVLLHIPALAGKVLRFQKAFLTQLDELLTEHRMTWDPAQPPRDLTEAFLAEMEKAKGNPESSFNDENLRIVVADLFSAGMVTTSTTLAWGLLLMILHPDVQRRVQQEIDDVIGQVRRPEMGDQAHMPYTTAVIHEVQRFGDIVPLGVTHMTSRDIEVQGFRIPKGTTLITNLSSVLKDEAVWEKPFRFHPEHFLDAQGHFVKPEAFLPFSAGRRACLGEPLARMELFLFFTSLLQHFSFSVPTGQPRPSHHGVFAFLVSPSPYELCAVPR

O=C(O)CCC(=O)O [succinic acid, Succinic acid]
IC50 (CYP2D6 [1]): 14.5 µM
Ki (CYP2D6 [1]): 7.4 µM
inhibition model CYP2D6 (Lineweaver-Burk plots) (CYP2D6 [1]; microsomes): competitive
IC50 (CYP3A4 [2]): 12.8 µM
Ki (CYP3A4 [2]): 6.18 µM
inhibition model CYP3A4 (Lineweaver-Burk plots) (CYP3A4 [2]; pooled HLM): non-competitive
IC50 (CYP2C9 [3]): 19.6 µM
Ki (CYP2C9 [3]): 9.48 µM
inhibition model CYP2C9 (Lineweaver-Burk plots) (CYP2C9 [3]; pooled HLM): competitive
effect of incubation time on CYP2D6 activity (CYP2D6 [4]): not affected by the incubation time
effect of incubation time on CYP2C9 activity (CYP2C9 [5]): not affected by the incubation time
time dependence of CYP3A4 inhibition (CYP3A4 [6]; succinic acid 20 μM, 0–30 min): time-dependent
activity of CYP3A4 (decreased to) after incubating (CYP3A4 [6]; succinic acid 20 μM, 30 min incubation, HLMs with NADPH): 26.65%
CYP3A4 inactivated by succinic acid (CYP3A4 [6]; suggested from Kinact): about 5.1%
